Assay results from ChEMBL document CHEMBL2176994, “Radiosynthesis of PET radiotracer as a prodrug for imaging group II metabotropic glutamate receptors in vivo” (Bioorg Med Chem Lett, 2012).
Values belong to the compound of their own block, whether it stands above or below them.

Key:
[1] = biological target: Metabotropic glutamate receptor 3 (Rattus norvegicus, UniProt P31422); experiment: Agonist activity at mGLUR3 in rat cerebral cortex assessed as inhibition of forskolin-stimulated cAMP production; type: functional, tissue-based
Chain of Metabotropic glutamate receptor 3 (Rattus norvegicus, UniProt P31422) (P31422 whole entry): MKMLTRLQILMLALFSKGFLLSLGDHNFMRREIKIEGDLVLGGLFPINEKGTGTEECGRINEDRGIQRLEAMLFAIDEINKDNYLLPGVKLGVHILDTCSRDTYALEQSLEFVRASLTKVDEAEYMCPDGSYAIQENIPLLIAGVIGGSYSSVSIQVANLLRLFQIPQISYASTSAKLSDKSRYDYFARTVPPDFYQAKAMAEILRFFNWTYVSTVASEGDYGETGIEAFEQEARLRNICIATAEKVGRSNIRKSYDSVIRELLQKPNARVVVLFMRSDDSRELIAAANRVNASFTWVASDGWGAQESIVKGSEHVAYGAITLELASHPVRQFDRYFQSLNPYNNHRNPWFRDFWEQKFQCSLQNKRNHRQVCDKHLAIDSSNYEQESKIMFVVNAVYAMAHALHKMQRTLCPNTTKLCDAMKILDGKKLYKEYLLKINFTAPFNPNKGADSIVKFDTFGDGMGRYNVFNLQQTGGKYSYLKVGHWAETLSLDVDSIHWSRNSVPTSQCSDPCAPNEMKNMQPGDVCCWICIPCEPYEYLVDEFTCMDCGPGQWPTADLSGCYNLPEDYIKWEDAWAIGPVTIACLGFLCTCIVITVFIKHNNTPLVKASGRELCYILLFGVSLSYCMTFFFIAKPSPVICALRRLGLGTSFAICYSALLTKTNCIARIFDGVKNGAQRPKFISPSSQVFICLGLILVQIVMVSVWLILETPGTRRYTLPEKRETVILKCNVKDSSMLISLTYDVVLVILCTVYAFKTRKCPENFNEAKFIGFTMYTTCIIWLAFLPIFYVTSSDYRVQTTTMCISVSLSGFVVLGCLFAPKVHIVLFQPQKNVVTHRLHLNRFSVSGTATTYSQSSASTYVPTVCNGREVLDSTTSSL

[2] = biological target: T1, Metabotropic glutamate receptor 3 (Homo sapiens, UniProt Q14832); experiment: Agonist activity at mGLUR3 expressed in CHO cells; type: functional, cell-based
T1 sequence (Q14832 whole entry): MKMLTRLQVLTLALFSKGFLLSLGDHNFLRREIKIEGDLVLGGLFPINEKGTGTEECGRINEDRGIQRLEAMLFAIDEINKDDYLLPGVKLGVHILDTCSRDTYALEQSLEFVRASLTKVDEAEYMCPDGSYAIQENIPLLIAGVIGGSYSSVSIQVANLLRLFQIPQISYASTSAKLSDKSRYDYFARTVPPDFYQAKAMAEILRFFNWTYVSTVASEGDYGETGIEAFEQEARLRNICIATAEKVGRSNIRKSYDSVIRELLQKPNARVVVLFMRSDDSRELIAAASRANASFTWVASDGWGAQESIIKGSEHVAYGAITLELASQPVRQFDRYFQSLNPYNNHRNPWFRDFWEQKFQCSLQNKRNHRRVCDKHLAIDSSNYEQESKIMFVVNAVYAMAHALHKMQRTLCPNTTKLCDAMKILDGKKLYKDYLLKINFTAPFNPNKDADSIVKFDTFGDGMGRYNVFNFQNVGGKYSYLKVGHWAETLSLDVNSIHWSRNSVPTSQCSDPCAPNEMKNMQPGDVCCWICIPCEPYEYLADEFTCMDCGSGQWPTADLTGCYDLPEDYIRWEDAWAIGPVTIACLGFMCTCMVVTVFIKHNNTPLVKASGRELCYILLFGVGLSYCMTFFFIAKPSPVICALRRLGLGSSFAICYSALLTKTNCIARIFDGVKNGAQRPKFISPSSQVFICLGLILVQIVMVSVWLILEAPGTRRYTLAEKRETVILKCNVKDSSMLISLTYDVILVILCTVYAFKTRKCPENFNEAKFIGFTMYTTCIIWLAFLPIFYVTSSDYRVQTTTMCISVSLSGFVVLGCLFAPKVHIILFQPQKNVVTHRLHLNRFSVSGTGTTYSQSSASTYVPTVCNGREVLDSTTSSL

[3] = biological target: T2, Metabotropic glutamate receptor 2 (Homo sapiens, UniProt Q14416); experiment: Agonist activity at mGLUR2 expressed in CHO cells; type: functional, cell-based
T2 sequence (Q14416 whole entry): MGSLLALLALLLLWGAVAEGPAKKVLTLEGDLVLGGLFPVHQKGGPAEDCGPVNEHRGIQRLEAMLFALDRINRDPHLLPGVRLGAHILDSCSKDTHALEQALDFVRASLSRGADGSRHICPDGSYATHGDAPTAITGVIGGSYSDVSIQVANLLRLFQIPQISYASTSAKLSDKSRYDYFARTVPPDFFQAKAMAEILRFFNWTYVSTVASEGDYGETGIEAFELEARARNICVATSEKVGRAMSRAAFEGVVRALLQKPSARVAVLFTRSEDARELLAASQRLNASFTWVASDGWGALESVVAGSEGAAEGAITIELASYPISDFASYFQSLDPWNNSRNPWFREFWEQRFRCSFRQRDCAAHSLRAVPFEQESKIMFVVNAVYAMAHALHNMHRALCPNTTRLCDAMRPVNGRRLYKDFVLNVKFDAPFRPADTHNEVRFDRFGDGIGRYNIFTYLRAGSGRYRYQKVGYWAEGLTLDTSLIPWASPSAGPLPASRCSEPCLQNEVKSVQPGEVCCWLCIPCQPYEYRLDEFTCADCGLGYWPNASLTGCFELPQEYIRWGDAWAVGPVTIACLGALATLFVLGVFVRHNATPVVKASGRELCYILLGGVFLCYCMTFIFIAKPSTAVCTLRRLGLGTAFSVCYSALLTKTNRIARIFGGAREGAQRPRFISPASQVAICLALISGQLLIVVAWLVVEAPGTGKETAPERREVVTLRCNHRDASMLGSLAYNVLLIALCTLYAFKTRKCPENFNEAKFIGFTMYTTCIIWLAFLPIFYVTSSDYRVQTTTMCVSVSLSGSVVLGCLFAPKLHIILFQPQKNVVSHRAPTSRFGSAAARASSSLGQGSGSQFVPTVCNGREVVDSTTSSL

[4] = biological target: T2, Metabotropic glutamate receptor 2; experiment: Antagonist activity at mGLUR2 expressed in CHO cells assessed as inhibition of glutamate-induced inhibition of forskolin-stimulated cAMP production
[5] = biological target: T1, Metabotropic glutamate receptor 3; experiment: Antagonist activity at mGLUR3 expressed in CHO cells assessed as inhibition of glutamate-induced inhibition of forskolin-stimulated cAMP production; type: functional, cell-based
[6] = biological target: T1, Metabotropic glutamate receptor 3; experiment: Binding affinity to mGLUR3
[7] = biological target: T2, Metabotropic glutamate receptor 2; experiment: Binding affinity to mGLUR2
[8] = Drug uptake in Sprague-Dawley rat olfactory lobe at […], iv from 20 to 40 mins by microPET analysis in presence of LY341495; type: ADME, organism-based; settings: in vivo
Striatum [9] = experiment: Drug uptake in Sprague-Dawley rat striatum at […], iv from 1 to 40 mins by microPET analysis; type: ADME, organism-based; settings: in vivo
Cerebellum = experiment: Drug uptake in Sprague-Dawley rat cerebellum at […], iv from 20 to 40 mins by microPET analysis in presence of LY341495; type: ADME, organism-based; settings: in vivo
Cortex = experiment: Drug uptake in Sprague-Dawley rat cortex at […], iv from 1 to 40 mins by microPET analysis; type: ADME, organism-based; settings: in vivo
Brain [10] = experiment: Drug uptake in Sprague-Dawley rat brain at […], iv at 2 mins by microPET analysis; type: ADME, organism-based; settings: in vivo
Hippocampus [11] = experiment: Drug uptake in Sprague-Dawley rat hippocampus at […], iv from 1 to 40 mins by microPET analysis; type: ADME, organism-based; settings: in vivo
Brain [12] = experiment: Drug uptake in Sprague-Dawley rat brain at […], iv from 1 to 40 mins by microPET analysis; type: ADME, organism-based; settings: in vivo
[13] = Drug uptake in Sprague-Dawley rat motor cortex at […], iv from 20 to 40 mins by microPET analysis in presence of LY341495; type: ADME, organism-based; settings: in vivo
[14] = Drug uptake in Sprague-Dawley rat cingulate cortex at […], iv from 20 to 40 mins by microPET analysis in presence of LY341495; type: ADME, organism-based; settings: in vivo
Thalamus = experiment: Drug uptake in Sprague-Dawley rat thalamus at 0.4 uCi, iv from 20 to 40 mins by microPET analysis in presence of LY341495; type: ADME, organism-based; settings: in vivo
Brain [15] = experiment: Drug uptake in Sprague-Dawley rat brain at […], iv from 20 to 40 mins by microPET analysis in presence of LY341495; type: ADME, organism-based; settings: in vivo
Hippocampus [16] = experiment: Drug uptake in Sprague-Dawley rat hippocampus at […], iv from 20 to 40 mins by microPET analysis in presence of LY341495; type: ADME, organism-based; settings: in vivo
Striatum [17] = experiment: Drug uptake in Sprague-Dawley rat striatum at 0.4 uCi, iv from 20 to 40 mins by microPET analysis in presence of LY341495; type: ADME, organism-based; settings: in vivo
Brain [18] = experiment: Drug uptake in Sprague-Dawley rat brain at […], iv from 20 to 25 mins by microPET analysis; type: ADME, organism-based; settings: in vivo

EC50 [1]: 38 nM
SMILES: N[C@@]1(C(=O)O)CC[C@H]2[C@H](C(=O)O)[C@H]21

SMILES: N[C@@]1(C(=O)O)CC(=O)[C@@H]2[C@H]1[C@@]2(F)C(=O)O
EC50 [2]: 2.07 nM
EC50 [3]: 0.57 nM

IC50 [4]: 20 nM
IC50 [5]: 24 nM
Ki [6]: 4.5 nM
Ki [7]: 2.2 nM
SMILES: N[C@]1(C(=O)O)[C@H]2[C@@H](C[C@H]1OCc1ccc(Cl)c(Cl)c1)[C@]2(F)C(=O)O

Drug uptake [8]: Active
Drug uptake (Striatum [9]): Active
Drug uptake (Cerebellum): Not Active
Drug uptake (Cortex): Active
Drug uptake (Brain [10]): 2.5 %ID/cm3
Drug uptake (Hippocampus [11]): Active
Drug uptake (Brain [12]): Active
Drug uptake [13]: Not Active
Drug uptake [14]: Not Active
Drug uptake (Thalamus): Not Active
Drug uptake (Brain [15]): Not Active
Drug uptake (Hippocampus [16]): Not Active
Drug uptake (Striatum [17]): Not Active
SMILES: COC(=O)[C@H]1C[C@@H]1[C@@](N)(CCc1cccc(O[11CH3])c1)C(=O)OC

Drug uptake (Brain [18]): Not Active
SMILES: [11CH3]Oc1cccc(CC[C@@](N)(C(=O)O)[C@H]2C[C@@H]2C(=O)O)c1
